Results taken from patent US20240315993A1, “ANTIPARASITIC COMPOUNDS” (Intervet Inc., priority 2021, published 2024).

Experiments:
[1] = system: Rhipicephalus microplus tick larvae; assay: Tick larvae contact assay; conditions: ~3 min immersion, assessed ~24 h after, read-out: Tick inhibition (% of damage+dead ticks)
Protocol: Tick larvae (Rhipicephalus microplus) were immersed for approximately 3 minutes in declining concentrations of a test compound (dissolved in a DMSO-emulsifier-deionized water mixture). Tick inhibition (% of damage+dead ticks per test concentration) was assessed approximately 24 hours after contact exposure. The vitality of used parasites was confirmed in negative control groups (i.e. an untreated control and a solvent control).

[2] = system: Fly larvae I (Lucilia cuprina); assay: Fly larvae contact/feeding assay; conditions: 48 h, read-out: Inhibition of fly larvae development
Protocol: Fly larvae I (Lucilia cuprina) were grown in medium spiked with declining concentrations of a test compound (dissolved in a DMSO-emulsifier-deionized water mixture). Inhibition of fly larvae development (%) was assessed after approximately 48 hours of continuous exposure. The vitality of used parasites was confirmed in negative control groups (i.e., an untreated control and a solvent control).

[3] = system: juvenile soft ticks (Ornithodoros moubata); assay: Guinea pig - efficacy against argaside tick; assay type: in vivo
Procedure, shortened: (§1)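 Guinea pigs given 5 mg/kg test compound orally (gavage) or s.c. in 10% DMF/emulsifier plus 90% water for injection, with local co-infestations of Ornithodoros moubata juveniles and Cimex lectularius at several post-treatment times. Engorged parasites scored dead/damaged about 24 h after collection; % inhibition versus pretreatment baseline by modified Schneider-Orelli formula.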

[4] = system: bed bugs (Cimex lectularius); assay: Guinea pig - efficacy against bed bug; assay type: in vivo
Procedure, shortened: as §1

[5] = system: Copepodids (juvenile sea lice stage of Lepeophtheirus salmonis); assay: Juvenile sea lice contact assay; conditions: Lepeophtheirus salmonis, ~24 h, read-out: Sea lice inhibition (% of dead+damaged copepodids)
Protocol: Copepodids (juvenile sea lice stage of Lepeophtheirus salmonis) were exposed to seawater spiked with declining concentrations of a test compound (dissolved in a DMSO sea-water mixture). Sea lice inhibition (% of dead+damaged copepodids) was assessed after approximately 24 hours of continuous exposure. The vitality of used parasites was confirmed in a negative (solvent) control group.

Lepeophtheirus salmonis [6] = assay: Salmon - in vivo efficacy against sea lice using gavage administration; conditions: 5 mg/kg once by gavage, day -3 infestation, counted around day 28
Procedure, shortened: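 Salmon given a single oral gavage of 5 mg/kg in 5% DMSO/95% fish oil on day 0, with vehicle controls. L. salmonis copepodid infestations around days −28, −3 and 17; lice counted by stage around day 28, efficacy as % reduction versus control by Abbott's formula.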

[7] = system: Adult fleas (Ctenocephalides felis); assay: Flea feeding assay; conditions: 1 ppm in blood, ~48 h membrane feeding, read-out: flea inhibition (% of dead+damaged fleas)
Protocol: Adult fleas (Ctenocephalides felis) of defined age were fed on artificial membranes with blood spiked with declining concentrations of a test compound (dissolved in a DMSO-emulsifier-blood mixture). After approximately 48 hours of continuous feeding, flea inhibition (i.e., % of dead+damaged fleas per test concentration) was assessed. The vitality of used parasites was confirmed in negative control groups (i.e., an untreated control and a solvent control).

[8] = system: Mobile stages of sea lice (pre-adults, adults of Lepeophtheirus salmonis); assay: Adult sea lice contact assay; conditions: pre-adults/adults, assessed after ~1 and 24 h, read-out: EC50 (sea lice inhibition, dead+damaged)
Protocol: Mobile stages of sea lice (i.e., pre-adults, adults of Lepeophtheirus salmonis) were exposed to seawater spiked with declining concentrations of a test compound (dissolved in a PEG sea-water mixture). Sea lice inhibition (% of dead+damaged sea lice) was assessed after approximately 1 and 24 hours of continuous exposure in comparison to a negative (solvent) control group.

Lepeophtheirus salmonis [9] = assay: Salmon - in vivo efficacy against sea lice using gavage administration; conditions: po, 168 h, read-out: therapeutic efficacy against (pre-)adult sea lice (% reduction vs control), salmon, 5 mg/kg once by gavage, day -28 infestation, counted day 7
[10] = 5 mg/kg subcutaneous, after 7 days
[11] = 5 mg/kg subcutaneous, after 10 days
[12] = 5 mg/kg subcutaneous, after 14 days
[13] = 5 mg/kg subcutaneous, after 17 days
[14] = 5 mg/kg, at least until Day 10, both administration routes (oral, subcutaneous)

SMILES | inhibition at 100 ppm [1] [%] | inhibition at 100 ppm [2] [%] | activity against tick nymphs (≥80% inhibition, killed+damaged) ([3]; 5 mg/kg oral, Day 0) | activity against tick nymphs (≥80% inhibition, killed+damaged) ([3]; 5 mg/kg oral, after 7 days) | activity against tick nymphs (≥80% inhibition, killed+damaged) ([3]; 5 mg/kg subcutaneous, Day 0) | activity against tick nymphs (≥80% inhibition, killed+damaged) [3, 10] | activity against tick nymphs (≥80% inhibition, killed+damaged) [3, 11] | activity against bed bugs (≥80% inhibition, killed+damaged) ([4]; 5 mg/kg oral, Day 0) | activity against bed bugs (≥80% inhibition, killed+damaged) ([4]; 5 mg/kg oral, after 7 days) | activity against bed bugs (≥80% inhibition, killed+damaged) ([4]; 5 mg/kg subcutaneous, Day 0) | activity against bed bugs (≥80% inhibition, killed+damaged) [4, 10] | activity against bed bugs (≥80% inhibition, killed+damaged) [4, 11] | further results
CN(C(=O)c1cc(NC(=O)[C@H]2[C@H](c3cc(Cl)cc(Cl)c3)C2(Cl)Cl)ccc1Cl)c1ccc(F)cc1 [Compound 51] | 80 | 80 | immediate activity | activity | immediate activity | activity | activity | immediate activity | activity | immediate activity | activity | activity | inhibition at 25 µM ([1]; 25 μM): ≥ 80%; inhibition at 49 µM ([1]; 49 μM): 80%; inhibition at 388 µM ([1]; 388 μM): 80%; activity against tick nymphs (≥80% inhibition, killed+damaged) [3, 12]: activity; activity against tick nymphs (≥80% inhibition, killed+damaged) [3, 13]: activity; duration of efficacy, subcutaneous compared with oral administration ([3]; 5 mg/kg, ticks and bed bugs): longer duration of efficacy; activity against bed bugs (≥80% inhibition, killed+damaged) [4, 12]: activity; activity against bed bugs (≥80% inhibition, killed+damaged) [4, 13]: activity; inhibition at 0.1 µM ([5]; 100 nM in seawater): ≥ 80%
O=C(Nc1ncc(F)cc1F)c1cc(NC(=O)[C@H]2[C@H](c3ccc(Cl)c(Cl)c3)C2(Cl)Cl)ccc1Cl [Compound 86] | 80 | 80 | immediate activity | activity | immediate activity | activity | activity | immediate activity | activity | immediate activity | activity | activity | therapeutic efficacy against juvenile sea lice (% reduction vs control) (Lepeophtheirus salmonis [6]): 100%; activity against tick nymphs (≥80% inhibition, killed+damaged) ([3]; 5 mg/kg oral, after 10 days): activity; effective to control ticks [3, 14]: 100%; activity against bed bugs (≥80% inhibition, killed+damaged) ([4]; 5 mg/kg oral, after 10 days): activity; effective to control bed bugs [4, 14]: 100%; inhibition at 1 ppm [7]: 80%; EC50 [8]: ≤ 10 nM; inhibition in vivo at 5 mg/kg (Lepeophtheirus salmonis [9]): 100%; inhibition at 0.01 µM ([5]; 10 nM in seawater): 100%
